Data published in patent US12195804B2, “Treatment of squamous cell carcinoma” (Board of Regents, The University of Texas System, priority 2018, dated 2025).

How the values were obtained:
HNSCC cell lines [1] = test: CellTiter-Glo cell viability assay; type: cell-based, human; details: for cell viability, NOTCH1MUT and NOTCH1WT cell lines: 0-200 nM
Description: Cell viability assay. […] A CellTiter-Glo luminescent cell viability assay (Promega, Madison, WI) was performed as described previously (Castel et al., 2016; Muellner et al., 2011). Inhibitory concentration (ICs) and area under the curve (AUC) values were calculated using the drexplorer R package with a best-fit dose-response model (Zumsteg et al., 2016). The combination indices were calculated using the Chou-Talalay method (Cal et al., 2017) in CalcuSyn (Biosoft, Cambridge, UK). We tested the reproducibility and robustness of the data generated using three quality control parameters as described previously (Bohnacker et al., 2017). These parameters were the concordance correlation coefficient, location shift, and maximum standard deviation between two biological replicates for three technical and two biological replicates. Based on heuristics from our previous screening studies in lung cancer (Bohnacker et al., 2017), the cut-offs for reproducibility were a concordance correlation coefficient greater than 0.8, a location shift less than 0.9, and a standard deviation less than 0.23 based on the normal mixture fit model. Experiments not satisfying these criteria were repeated. The replicate with the smallest experimental variation measured by the median of standard deviation was chosen as a representative of the replicates, and its IC values served as the final values for subsequent analysis.
Cell lines were classified as sensitive based on IC70 values less than the peak plasma concentration for each drug. To determine if cross-comparison of the PI3K/mTOR inhibitors as a class was feasible, their drug sensitivity patterns were compared with those of three cell cycle kinase inhibitors tested previously (Zhang et al., 2017). The PI3K/mTOR pathway inhibitors clustered separately from the cell cycle inhibitors (FIG. 12C).

EGFR^MUT lung cancers = details: EGFRMUT lung cancers; cited from earlier work
HNSCC cell lines [2] = test: Apoptosis assays (Annexin V/propidium iodide, BrdU TUNEL, cleaved PARP/caspase 3); type: cell-based, human; details: alone, regardless of NOTCH1 status
Description: FIGS. 7A-7D: PI3K/mTOR signaling inhibition induces cell death in NOTCH1^MUT but not NOTCH1^WT head and neck squamous cell carcinoma (HNSCC) cell lines in vitro. FIG. 7A. Annexin V/propidium iodide or BrDU-terminal deoxynucleotidyl transferase (TdT) dUTP nick-end labeling (TUNEL) assays were used to measure apoptosis in HNSCC cells with the indicated NOTCH1 and PIK3CA mutations, which were treated with 50 nM GSK2126458 (GSK212) for 24 or 48 hours, respectively. Values are the means±standard deviations of three independent experiments. *p<0.05, unpaired two-tailed Student t-test. FIG. 7B. Western blotting of cleaved PARP (Cl-PARP) and cleaved caspase 3 (Cl-Caspase 3) levels in mutant and wild type cells after GSK212 treatment for 48 hours. FIG. 7C. NOTCH1^MUT and NOTCH1^WT HNSCC cells were plated sparsely and treated with GSK212 at the indicated concentrations for 48 hours. At 14-21 days after treatment, the cells were fixed and stained, images were captured using the GelCount Tumour Colony Counter, and colony numbers and the colorimetric intensity of the colonies were determined by measuring the optical density (OD) at 570 nm. Values are the means±standard deviations of three independent experiments. *p<0.001, unpaired two-tailed Student t-test. FIG. 7D. Three NOTCH1^WT lines (black text and bars) and three NOTCH1^MUT lines (red text and bars) were treated with increasing concentrations of GSK212 for 4 hours, and levels of PI3K/mTOR pathway proteins were measured by Western blot analysis.
Western blot analysis. Western blot analysis was performed as described previously (Ferrarotto et al., 2016). In brief, cells were lysed with ice-cold lysis buffer, and the lysates were centrifuged at 20,000×g for 10 minutes at 4° C. Cell samples containing equal amounts of protein were resolved using sodium dodecyl sulfate-polyacrylamide gel electrophoresis, transferred to nitrocellulose membranes, and immunoblotted with different primary antibodies. Protein expression was detected using a horseradish peroxidase-conjugated secondary antibody (Bio-Rad, Hercules, CA) and electrochemiluminescence reagent (Amersham Biosciences, Pittsburg, PA).
Apoptosis and cell cycle assays. To measure apoptosis, we performed terminal deoxynucleotidyl transferase dUTP nick end labeling (TUNEL) staining with an APO-BRDU Kit (BD Biosciences, San Jose, CA) and Annexin V/propidium iodide staining with an FITC Annexin V Apoptosis Detection Kit (BD Pharmingen, San Diego, CA) as described previously (Chandarlapaty et al., 2011). […] Data were acquired with a three-laser, 10-color Gallios flow cytometer (Beckman Coulter, Brea, CA) and analyzed using Kaluza software (Beckman Coulter, Brea, CA). […]

[3] = system: pAKT, pS6 and p4EBP1 in HNSCC cell lines; test: Western blot of PI3K pathway signaling after bimiralisib; type: cell-based, human; details: four HNSCC cell lines, 2 hours
Description: Cells were lysed and then resolved by SDS PAGE. Western blot analysis was performed using the indicated antibodies.

HNSCC cell lines [4] = test: Sensitivity of 69 HNSCC cell lines to bimiralisib; type: cell-based, human
Source text: IC50 values were estimated from the best-fit dose-response model selected by calculating residual standard error using the R packages Dose Finding and drc (dose response curve) (Ritz and Streibig 2005, Bornkamp, Bretz et al. 2011). All experiments were done in duplicate and we compared the response between two experiments using concordance correlation coefficient (CCC). The CCC can be computed based on the scaled response as well as original unscaled response. The scaled version should be more relevant since this is actually the data used in IC estimation. […] To identify differentially expressed features between the comparative groups, we applied modified two-sample t-tests using the Limma package. The beta-uniform mixture (BUM) model, described by Pounds and Morris was used to control false discovery rate (FDR) (Pounds and Morris 2003).

HNSCC cell lines [5] = test: BrdU TUNEL cell death, cell cycle and apoptosis markers after bimiralisib; type: cell-based, human; details: 5 μM
Source text: Apoptotic death in NOTCH1 mutants, but not wt cell lines, was confirmed with cleaved PARP and Caspase 3.

other protein kinases = details: cited from earlier work
[6] = human, oral; cited from earlier work
[7] = administered orally; cited from earlier work
pAKT, pS6 and p4EBP = details: therapeutic doses; cited from earlier work
[8] = system: UM22A, HN31 and FaDu HNSCC xenografts; test: Orthotopic tongue xenografts treated with bimiralisib; details: for tumor growth: 50 mg/kg PO once daily 28 days

## Nc1cc(C(F)(F)F)c(-c2cc(N3CCOCC3)nc(N3CCOCC3)n2)cn1 [BKM120]
HNSCC cell lines [1]; 59 HNSCC cell lines, 72 hours
  effectiveness across HNSCC cell lines (IC70): almost universally effective

## CO[C@H]1C[C@@H]2CC[C@@H](C)[C@@](O)(O2)C(=O)C(=O)N2CCCC[C@H]2C(=O)O[C@H]([C@H](C)C[C@@H]2CC[C@@H](OP(C)(C)=O)[C@H](OC)C2)CC(=O)[C@H](C)/C=C(\C)[C@@H](O)[C@@H](OC)C(=O)[C@H](C)C[C@H](C)/C=C/C=C/C=C/1C [ridaforolimus]
HNSCC cell lines [1]; 72 hours
  cell viability, NOTCH1MUT and NOTCH1WT cell lines: resistant

## NC1(c2ccc(-c3nc4ccn5c(=O)[nH]nc5c4cc3-c3ccccc3)cc2)CCC1 [MK-2206]
HNSCC cell lines [1]; 72 hours
  cell viability, NOTCH1MUT and NOTCH1WT cell lines: resistant

## COc1c(OCCCN2CCOCC2)ccc2c1N=C(NC(=O)c1cnc(N)nc1)N1CCN=C21 [BAY806946]
HNSCC cell lines [1]; 72 hours
  cell viability, NOTCH1MUT and NOTCH1WT cell lines: differential effects

## C=CC(=O)Nc1cc(Nc2nccc(-c3cn(C)c4ccccc34)n2)c(OC)cc1N(C)CCN(C)C [osimertinib]
EGFR^MUT lung cancers
  response rate: about 80%

## CNc1nc(-c2ccc3c(N)n[nH]c3c2)cc(N2C[C@@H](C(=O)NC3CCCCC3)CC[C@H]2C)n1 [GSK2334470]
HNSCC cell lines [1]; alone, regardless of NOTCH1 status
  cell viability: little effect
HNSCC cell lines [2]
  apoptosis: little effect

## Nc1cc(C(F)(F)F)c(-c2nc(N3CCOCC3)nc(N3CCOCC3)n2)cn1 [bimiralisib, 5-(4,6-Dimorpholino-1,3,5-triazin-2-yl)-4-(trifluoromethyl)pyridin-2-amine]
[3]
  pAKT, pS6 and p4EBP1 (Western blot): decrease
[3]; listed as Bimiralisib
  pAKT, pS6 and p4EBP1 (Western blot): inhibits PI3K pathway signaling
HNSCC cell lines [4]; Homo sapiens, 66 of 69 HNSCC cell lines
  IC50: < 3000 nM
HNSCC cell lines [4]; NOTCH1 Mutant cell lines
  number of cell lines Resistant: 3
  number of cell lines Sensitive: 12
HNSCC cell lines [4]; NOTCH1 WT cell lines
  number of cell lines Resistant: 20
  number of cell lines Sensitive: 18
HNSCC cell lines [5]; 48 hours, HNSCC lines with NOTCH1 mutations
  cell death by BrdU-TUNEL: significantly increased
HNSCC cell lines [5]; HNSCC NOTCH1wt lines
  cell cycle effect: arrested cell lines in G1/S
Other protein kinases
  inhibition of other protein kinases (KINOMEscan): does not significantly inhibit
[6]
  Tmax: < 2 h
  terminal half-life: 51 h
[7]
  crossing of the blood-brain barrier: crosses the blood-brain barrier
pAKT, pS6 and p4EBP
  pAKT, pS6 and p4EBP in tumor tissue: marked decreases
[8]; FaDu (NOTCH1wt)
  tumor growth: not affected
[8]; UM22A and HN31 (NOTCH1 inactivating mutations)
  tumor growth: significant reduction of tumor growth
[8]; 50 mg/kg PO once daily, 28 days, mice
  body weight: without body weight loss
